In test [1] the test system is Pseudomonas aeruginosa. In words: Antibacterial activity against Pseudomonas aeruginosa 101885 assessed as fractional inhibitory concentration incubated for 18 hrs in presence of tigecycline by broth microdilution assay. The class given is functional.
For test [2], the system named is Pseudomonas aeruginosa. Put plainly: Antibacterial activity against Pseudomonas aeruginosa 114228 assessed as fractional inhibitory concentration incubated for 18 hrs in presence of rifampicin by broth microdilution assay. In kind it is functional.
Test [3] concerns Escherichia coli. In words: Potentiation of chloramphenicol-induced antibacterial activity against Escherichia coli ATCC 25922 assessed as fold change in chloramphenicol MIC at 9.8 uM incubated for 18 hrs in presence of chloramphenicol by broth microdilution assay relative to control. In kind it is functional.
Test [4] deals with Pseudomonas aeruginosa. Put plainly: Antibacterial activity against Pseudomonas aeruginosa 262-101856 assessed as fractional inhibitory concentration incubated for 18 hrs in presence of rifampicin by broth microdilution assay. The class given is functional.
The subject of test [5] is Pseudomonas aeruginosa. In words: Antibacterial activity against Pseudomonas aeruginosa 91433 assessed as fractional inhibitory concentration incubated for 18 hrs in presence of rifampicin by broth microdilution assay. In kind it is functional.
Test [6] has as its system Pseudomonas aeruginosa. In words: Antibacterial activity against Pseudomonas aeruginosa 260-97103 infected in Galleria mellonella larvae assessed as survival of larvae at 100 mg/kg treated at 3 hrs post-infection in presence of doxycycline and measured after 18 hrs relative to control. The class given is functional.
For test [7], the system named is Pseudomonas aeruginosa. Put plainly: Potentiation of doxycycline-induced antibacterial activity against Pseudomonas aeruginosa PAO750 harboring MexAB-OprM, MexCD-OprJ, MexEF-OprN, Mex JK, MexXY and the OM protein OpmH deletion mutant assessed as fold change in doxycycline MIC at <=9.8 uM incubated for 18 hrs in presence of doxycycline by broth microdilution assay. The settings on record: dose microM <=9.8. In kind it is functional.

Test [8] relates to Pseudomonas aeruginosa. In words: Antibacterial activity against Pseudomonas aeruginosa 264-101354 assessed as fractional inhibitory concentration index incubated for 18 hrs in presence of rifampicin by broth microdilution assay. In kind it is functional.
In test [9] the test system is Pseudomonas aeruginosa. In words: Antibacterial activity against Pseudomonas aeruginosa 114228 assessed as potentiation of chloramphenicol-induced antibacterial activity by measuring chloramphenicol MIC at 9.8 uM incubated for 18 hrs in presence of chloramphenicol by broth microdilution assay (reference value: 64 ug/ml). In kind it is functional.
For test [10], the system named is Pseudomonas aeruginosa. Put plainly: Antibacterial activity against Pseudomonas aeruginosa 260-97103 assessed as fractional inhibitory concentration incubated for 18 hrs in presence of rifampicin by broth microdilution assay. In kind it is functional.
In test [11] the test system is Acinetobacter baumannii. Put plainly: Potentiation of chloramphenicol-induced antibacterial activity against Acinetobacter baumannii ATCC 17978 assessed as fold change in chloramphenicol MIC at 9.8 uM incubated for 18 hrs in presence of chloramphenicol by broth microdilution assay relative to control. In kind it is functional.
Test [12] deals with Pseudomonas aeruginosa. Put plainly: Potentiation of doxycycline-induced antibacterial activity against Pseudomonas aeruginosa 114228 assessed as fold change in doxycycline MIC at 9.8 uM incubated for 18 hrs in presence of doxycycline by broth microdilution assay relative to control. In kind it is functional.
The subject of test [13] is Pseudomonas aeruginosa. Put plainly: Antibacterial activity against Pseudomonas aeruginosa 101885 assessed as potentiation of chloramphenicol-induced antibacterial activity by measuring chloramphenicol MIC at 9.8 uM incubated for 18 hrs in presence of chloramphenicol by broth microdilution assay (reference value: 512 ug/ml). The class given is functional.
Test [14] has as its system Pseudomonas aeruginosa. In words: Antibacterial activity against Pseudomonas aeruginosa 260-97103 assessed as potentiation of doxycycline-induced antibacterial activity by measuring doxycycline MIC at 9.8 uM incubated for 18 hrs in presence of doxycycline by broth microdilution assay (reference value: 16 ug/ml). The class given is functional.
In test [15] the test system is Pseudomonas aeruginosa. In words: Antibacterial activity against Pseudomonas aeruginosa 101885 assessed as potentiation of doxycycline-induced antibacterial activity by measuring doxycycline MIC at 9.8 uM incubated for 18 hrs in presence of doxycycline by broth microdilution assay (reference value: 64 ug/ml). In kind it is functional.
Test [16] relates to Pseudomonas aeruginosa. Put plainly: Antibacterial activity against Pseudomonas aeruginosa 259-96918 assessed as fractional inhibitory concentration incubated for 18 hrs in presence of tigecycline by broth microdilution assay. The class given is functional.
For test [17], the system named is Pseudomonas aeruginosa. In words: Potentiation of chloramphenicol-induced bactericidal activity against Pseudomonas aeruginosa PAO1 assessed as reduction in bacterial colonies at 4.9 to 9.8 microM incubated for upto 24 hrs in LB medium in presence of chloramphenicol followed by plating on agar plate and measured after 20 hrs by time-kill assay. In kind it is functional, organism-based. Conditions: dose 4.9-9.8 µM, time hrs <=44.

The subject of test [18] is Pseudomonas aeruginosa. Put plainly: Antibacterial activity against Pseudomonas aeruginosa 114228 assessed as fractional inhibitory concentration index incubated for 18 hrs in presence of tigecycline by broth microdilution assay. The class given is functional.
Test [19] has as its system Pseudomonas aeruginosa. In words: Antibacterial activity against Pseudomonas aeruginosa 260-97103 infected in Galleria mellonella larvae assessed as survival of larvae at 75 mg/kg treated at 3 hrs post-infection in presence of doxycycline and measured after 18 hrs relative to control. The class given is functional.
Test [20] relates to Pseudomonas aeruginosa. Put plainly: Antibacterial activity against Pseudomonas aeruginosa 262-101856 assessed as fractional inhibitory concentration index incubated for 18 hrs in presence of minocycline by broth microdilution assay. The class given is functional.
The subject of test [21] is Pseudomonas aeruginosa. In words: Potentiation of doxycycycline-induced bactericidal activity against Pseudomonas aeruginosa PAO1 assessed as reduction in bacterial colonies incubated for >= 24 hrs in LB medium in presence of doxycycline followed by plating on agar plate and measured after 20 hrs by time-kill assay. Conditions: dose 4.9-9.8 µM, time hrs >=44. The class given is functional, organism-based.

Test [22] relates to Pseudomonas aeruginosa. Put plainly: Antibacterial activity against Pseudomonas aeruginosa 260-97103 assessed as fractional inhibitory concentration index incubated for 18 hrs in presence of minocycline by broth microdilution assay. In kind it is functional.
Test [23] has as its system Pseudomonas aeruginosa. In words: Antibacterial activity against Pseudomonas aeruginosa 114228 assessed as fractional inhibitory concentration index incubated for 18 hrs in presence of minocycline by broth microdilution assay. The class given is functional.
For test [24], the system named is Pseudomonas aeruginosa. In words: Potentiation of doxycycycline-induced bactericidal activity against Pseudomonas aeruginosa PAO1 assessed as bacterial viability at 9.8 microM incubated for 9 hrs in LB medium in presence of doxycycline followed by plating on agar plate and measured after 20 hrs by time-kill assay. The class given is functional. The settings on record: time 29 hrs.

Test [25] has as its system Pseudomonas aeruginosa. Put plainly: Potentiation of chloramphenicol-induced antibacterial activity against Pseudomonas aeruginosa 101885 assessed as fold change in chloramphenicol MIC at 7.6 uM incubated for 18 hrs in presence of chloramphenicol by broth microdilution assay relative to control. The class given is functional.
Test [26] has as its system Pseudomonas aeruginosa. In words: Potentiation of chloramphenicol-induced antibacterial activity against Pseudomonas aeruginosa 264-101354 assessed as fold change in chloramphenicol MIC at 7.6 uM incubated for 18 hrs in presence of chloramphenicol by broth microdilution assay relative to control. The class given is functional.
Test [27] deals with Klebsiella pneumoniae. Put plainly: Potentiation of chloramphenicol-induced antibacterial activity against Klebsiella pneumoniae ATCC 16381 assessed as fold change in chloramphenicol MIC at 7.6 uM incubated for 18 hrs in presence of chloramphenicol by broth microdilution assay relative to control. In kind it is functional.
Test [28] deals with Pseudomonas aeruginosa. Put plainly: Antibacterial activity against Pseudomonas aeruginosa 101885 assessed as potentiation of chloramphenicol-induced antibacterial activity by measuring chloramphenicol MIC at 7.6 uM incubated for 18 hrs in presence of chloramphenicol by broth microdilution assay (reference value: 512 ug/ml). The class given is functional.
Test [29] concerns Pseudomonas aeruginosa. In words: Antibacterial activity against Pseudomonas aeruginosa 91433 assessed as potentiation of chloramphenicol-induced antibacterial activity by measuring chloramphenicol MIC at 7.6 uM incubated for 18 hrs in presence of chloramphenicol by broth microdilution assay (reference value: 8 ug/ml). In kind it is functional.
Test [30] relates to Pseudomonas aeruginosa. In words: Potentiation of doxycycline-induced antibacterial activity against Pseudomonas aeruginosa 101243 assessed as fold change in doxycycline MIC at 7.6 uM incubated for 18 hrs in presence of doxycycline by broth microdilution assay relative to control. The class given is functional.

From ChEMBL document CHEMBL4715829, “Heterodimeric Rifampicin-Tobramycin conjugates break intrinsic resistance of Pseudomonas aeruginosa to doxycycline and chloramphenicol in vitro and in a Galleria mellonella in vivo model” (Eur J Med Chem, 2019) come the findings set out here.

The structures appear in SMILES notation. Active and inactive are the calls of the source. No cut-off for these calls is given here. A value given as a limit tells only on which side of the number the result lay.

On to `CO[C@H]1/C=C/O[C@@]2(C)Oc3c(C)c(O)c4c(O)c(c(/C=N/N5CCN(Cc6cn(CCCCCCO[C@@H]7[C@@H](O[C@H]8O[C@H](CO)[C@@H](O)[C@H](N)[C@H]8O)[C@H](N)C[C@H](N)[C@H]7O[C@H]7O[C@H](CN)[C@@H](O)C[C@H]7N)nn6)CC5)c(O)c4c3C2=O)NC(=O)/C(C)=C\C=C\[C@H](C)[C@H](O)[C@@H](C)[C@@H](O)[C@@H](C)[C@H](OC(C)=O)[C@@H]1C.Cl.Cl.Cl.Cl.Cl`, for which the FIC was 0.063 in test [1]; under 0.031 in test [2]; under 0.008 in test [4]; under 0.125 in test [5]; under 0.125 in test [10]; under 0.125 in [16]. Moreover, the “fold change (FC)” value in [3] is 0; in [7], 4; in test [11], 0; in [12], 4. Also, the survival at 100 mg/kg in test [6] was found to be 87%. For the same compound, the “fractional inhibitory concentration index (FICI)” value was 0.27 in test [8]; under 0.53 in test [18]; under 0.09 in [20]; under 0.13 in test [22]; under 0.28 in test [23]. The minimal inhibitory concentration (MIC) in [9] was determined as 16 µg/mL; in test [13], 8 µg/mL; in test [14] it was 0.125 µg/mL; in test [15] it was 1 µg/mL. Also, in test [17], the outcome was Active. In addition, in test [19], the survival at 75 mg/kg was 75%. Further, the figures for the Activity entry in test [21] and in test [24] were “Dose-dependent effect” and under 10 CFU/ml, respectively.
Take `CO[C@H]1/C=C/O[C@@]2(C)Oc3c(C)c(O)c4c(O)c(c(/C=N/N5CCN(Cc6cn(CCCCCCCCCCCCO[C@@H]7[C@@H](O[C@H]8O[C@H](CO)[C@@H](O)[C@H](N)[C@H]8O)[C@H](N)C[C@H](N)[C@H]7O[C@H]7O[C@H](CN)[C@@H](O)C[C@H]7N)nn6)CC5)c(O)c4c3C2=O)NC(=O)/C(C)=C\C=C\[C@H](C)[C@H](O)[C@@H](C)[C@@H](O)[C@@H](C)[C@H](OC(C)=O)[C@@H]1C.O=C(O)C(F)(F)F.O=C(O)C(F)(F)F.O=C(O)C(F)(F)F.O=C(O)C(F)(F)F.O=C(O)C(F)(F)F`: the “fold change (FC)” value in [25] amounted to 4; in [26] it was 4; in test [27], 0; in test [30], 4. For the same compound, the MIC in test [28] came out at 4 µg/mL; in test [29], 1 µg/mL.
